Measured values taken from patent US9540619B2, “MELK regulation for the treatment of breast cancer” (NOVARTIS AG, priority 2013, dated 2017).
“Also recorded” adds a separate entry of the source. Where a SMILES comes first, the peptide text is derived from it. The star is where a group is joined. Cbz = O=C(OCc1ccccc1)*; CH2F = FC*

Assays:
Format in all cases: cell-based, human
FoxM1 [1] = test: MELK transcription after FoxM1 inhibition (qRT-PCR); conditions: cells treated for 16 h; quantitative PCR
Protocol: Total RNA was extracted from cultured cells with RNeasy Mini kit (Qiagen), with the use of QIAshredder spin column for homogenization and an on-column DNase digestion. Two micrograms of the total RNA was reversely transcribed using a High Capacity RNA to-cDNA Kit (Applied Biosystems). cDNAs were analyzed quantitatively using Power SYBR Green PCR Master Mix (Applied Biosystems) on an ABI7300 Real-time PCR system. Cycling conditions were 95° C. for 15 min, 40 cycles of 15 s at 94° C., 30 s at 55° C. and 30 s at 72° C. Ct values were generated using the default analysis settings. ΔCT was defined as Ctgene of interest-Ctβactin. ΔΔCT was defined as ΔCttreated sample-Ctcontrol sample. Relative quantification (RQ) was calculated as 2^−ΔΔCT. Statistical analysis was performed by Student's test.

FoxM1 [2] = test: MELK abundance after FoxM1 inhibition (immunoblotting)
Protocol: Cells were lysed with RIPA buffer (25 mM Tris, pH 7.4, 150 mM NaCl, 1% Nonidet P-40, 0.5% sodium deoxycholate, and 0.1% sodium dodecyl sulfate) supplemented with protease inhibitors cocktail (Roche) and phosphatase inhibitors cocktail (Thermo Scientific). Cleared lysates were analyzed for protein concentration using BCA kit (Thermo Scientific). Equal amount of protein (10-20 μg) was resolved on 8% or 10% SDS-PAGE, and was subsequently transferred onto a nitrocellulose or polyvinylidene difluoride membrane (Amersham). The membrane was blocked with 5% non-fat milk and was then incubated with primary antibodies overnight at 4° C. After washing, the membrane was incubated with fluorophore-conjugated secondary antibodies for 1 h at room temperature. The membrane was then washed and scanned with an Odyssey Infrared scanner (Li-Cor Biosciences). Primary antibodies used in this study include anti MELK (Epitomics, #2916), anti-α-tubulin (Abcam), anti-cyclin B1 (Millipore), anti-Vinculin (Sigma), anti-FoxM1 (Santa Cruz), anti-β-tubulin, anti-phopho-Akt (S473), anti-phospho Akt (T308), anti-total Akt, anti-Flag, anti-cleaved PARP (Asp214), anti-cleaved Caspase 3, anti-AURKA, anti-AURKB, anti-p27 (all from Cell Signaling Technology). Secondary antibodies used were IRDye700-conjugated anti-rabbit IgG and IRDye800-conjugated anti-mouse IgG (Rockland).

caspases = test: MELK knockdown-induced cell death with pan-caspase inhibitor; conditions: MDA-MB-468 cells with shMELK, doxycycline 4 days, last two days with 40 μM zVad-fmk
[3] = tested on: luminal cell lines, MCF7 and T47D; test: Cell proliferation assay (crystal violet) upon doxycycline-induced shRNA; conditions: knockdown induced with doxycycline 100 ng/ml
Protocol: (§1) Typically, breast cancer cells were seeded in 12-well plates (1-2×10^4) in 1 ml medium. On the next day, wells were added with 110 μl medium without or with 1 μg/ml doxycycline (to reach a final concentration of 100 ng/ml), which was repeated every two days. Six days after the initial treatment, cells were fixed with formaldehyde, and stained with crystal violet (0.05%, weight/volume), a chromatin-binding cytochemical stain. The plates were washed extensively, and imaged with a flatbed scanner. For quantification of the staining, 1 ml 10% acetic acid was added to each well to extract the dye. The absorbance was measured at 590 nm with 750 nm as a reference.

[4] = tested on: BBC cells including BT549, MDA-MB-468, MDA-MB-231, and MDA-MB-436; test: as above; conditions: knockdown induced with doxycycline 100 ng/ml; crystal violet staining six days after initial treatment
Protocol: as §1

Compound | growth of luminal cell lines upon induction of the shRNA [3] | growth of BBC cells upon induction of the shRNA [4] | other results
C=C(NC(=O)C(=C)NC(=O)c1csc(C2=N[C@@H]3c4csc(n4)[C@H]4NC(=O)c5csc(n5)[C@H]([C@](C)(O)[C@@H](C)O)NC(=O)[C@H]5CSC(=N5)/C(=C/C)NC(=O)[C@H]([C@@H](C)O)NC(=O)c5csc(n5)[C@]3(CC2)NC(=O)[C@H](C)NC(=O)C(=C)NC(=O)[C@H](C)NC(=O)[C@H]([C@@H](C)CC)N[C@@H]2C=Cc3c([C@H](C)O)cc(nc3[C@H]2O)C(=O)O[C@@H]4C)n1)C(N)=O [thiostrepton] |  |  | transcription of MELK (FoxM1 [1]): decreases the transcription of MELK; abundance/expression of MELK protein (FoxM1 [2]; MDA-MB-231 cells, 10 μM thiostrepton vs vehicle (0.1% DMSO)): reduced the abundance of MELK; also recorded: downregulates the expression of MELK
COC(=O)C[C@H](NC(=O)[C@H](C)NC(=O)[C@@H](NC(=O)OCc1ccccc1)C(C)C)C(=O)CF [zVad, zVad-fmk] (Cbz-Val-Ala-Asp(OMe)-CH2F) |  |  | MELK knockdown-induced cell death (caspases): significantly reduced MELK knockdown-induced cell death
GACTAAAGCTTCACTATAATG (expressed or natural sequence) [MELK sh-1805, ID; NO: 2] | protected from the induction of MELK silencing | strongly impaired the growth | 
GAGAGCTGTTTGACTATATAA (expressed or natural sequence) [MELK sh-413, ID; NO: 1] | protected from the induction of MELK silencing | strongly impaired the growth | 
GCCTGAAAGAAACTCCAATTA (expressed or natural sequence; the letters are possibly those of the target site) [shMELK2, ID; NO: 4] | protected from the induction of MELK silencing | strongly impaired the growth | 
GGTGTGATACAGCCTACATAA (expressed or natural sequence; the letters are possibly those of the target site) [shMELK1, ID; NO: 3] | protected from the induction of MELK silencing | strongly impaired the growth | 
ggaccacuuucccuacuuu [siRNA (SEQ ID NO: 31)] |  |  | abundance/expression of MELK protein (FoxM1 [2]; siRNA transfection, lysates three days after transfection): reduced the abundance of MELK; abundance/expression of MELK protein (FoxM1 [2]; siRNA transfection, lysates three days after transfection, listed as siRNA targeting FoxM1): suppresses MELK expression
